Experiment: Room temperature storage of ketorolac formulated at different pH
Format: physicochemical
Conditions: formulated with a pH of less than 5 or greater than 9

degradation when stored at room temperature: would degrade
SMILES: O=C(c1ccccc1)c1ccc2n1CCC2C(=O)O (stereo not shown) [ketorolac, Ketorolac]

Reference: patent US20160296498A1, “Ketorolac Sublingual Spray Formulations” (Insys Development Company, Inc., priority 2015, published 2016)
